# Source: publication PMC9579956 (RSC Medicinal Chemistry, 2022)
# “And” between values parts separate entries of the source, which are not always exact repeats. Equal entries are not always repeated.
# Experiments:
# [1] = target: T1, Mycobacterium thermoresistible (Mtr) LpqY (Mycolicibacterium thermoresistibile, UniProt G7CES0); format: binding; conditions: for Screen signal/noise ratio (MST S/N): compound 100 μM, LpqY 500 nM, 10% DMSO, duplicate; for Pathogen Box screen signal/noise ratio: single dose MST screen against LpqY
# [2] = target: T1, Mycobacterium thermoresistible (Mtr) LpqY; format: binding; conditions: for Hit validation Binding score: MST re-evaluation of hits against LpqY; for Validation binding score (MST): quadruplicate, new batch of LpqY
# T1 sequence (G7CES0 29-471): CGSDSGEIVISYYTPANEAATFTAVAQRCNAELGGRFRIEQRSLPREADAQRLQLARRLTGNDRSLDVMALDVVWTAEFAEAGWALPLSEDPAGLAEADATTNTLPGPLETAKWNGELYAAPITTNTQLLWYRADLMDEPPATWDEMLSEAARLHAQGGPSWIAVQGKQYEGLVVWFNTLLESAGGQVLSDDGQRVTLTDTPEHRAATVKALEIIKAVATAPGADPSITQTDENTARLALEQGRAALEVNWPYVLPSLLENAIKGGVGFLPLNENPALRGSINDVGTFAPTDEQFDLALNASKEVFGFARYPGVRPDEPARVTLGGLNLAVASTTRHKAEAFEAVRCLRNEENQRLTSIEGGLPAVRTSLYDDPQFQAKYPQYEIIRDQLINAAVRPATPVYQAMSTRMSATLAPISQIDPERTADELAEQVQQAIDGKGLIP
SMILES,Pathogen Box screen signal/noise ratio [1],other results
"COc1ccccc1C(C)NCC(=O)Nc1cc(C(F)(F)F)ccc1Cl (centres unmarked) [MMV020321, N-[2-chloro-5-(trifluoromethyl)phenyl]-2-[1-(2-methoxyphenyl)ethylamino]acetamide]",5.5,Screen signal/noise ratio (MST S/N) [1]: 5.5; Hit validation Binding score [2]: 1.9; Validation binding score (MST) [2]: 1.9
"COc1ccc(OC(C)C(=O)Nc2ccc(Cl)cc2C)cc1 (centres unmarked) [MMV202458, N-(4-chloro-2-methylphenyl)-2-(4-methoxyphenoxy)propanamide]",5.5,Screen signal/noise ratio (MST S/N) [1]: 5.5; Hit validation Binding score [2]: 6.3; Validation binding score (MST) [2]: 6.3 and > 5
"COc1ccc(N(CCc2cccc(C)n2)C(=O)C2CCCCC2)cc1 [MMV675996, N-(4-methoxyphenyl)-N-[2-(6-methylpyridin-2-yl)ethyl]cyclohexanecarboxamide]",6.0,Screen signal/noise ratio (MST S/N) [1]: 6.0; Hit validation Binding score [2]: 4.9; Validation binding score (MST) [2]: 4.9
"COc1ccccc1OCCCCn1c(C2CC2)nc2ccccc21 [MMV676474, 2-cyclopropyl-1-[4-(2-methoxyphenoxy)butyl]benzimidazole]",6.0,Screen signal/noise ratio (MST S/N) [1]: 6.0; Hit validation Binding score [2]: 6.2; Validation binding score (MST) [2]: 6.2 and > 5
"COc1cc(C2=NCCN2)cc2cc(-c3ccc(C4=NCCN4)cc3)oc12 [MMV688362, 2-[4-[5-(4,5-dihydro-1H-imidazol-2-yl)-7-methoxy-1-benzofuran-2-yl]phenyl]-4,5-dihydro-1H-imidazole]",12.6,Screen signal/noise ratio (MST S/N) [1]: 12.6; Hit validation Binding score [2]: 14.8
"CNC(=O)C1Cc2c([nH]c3cc(Cl)ccc23)C2(CCN(CCc3ccccc3)CC2)N1 (centres unmarked) [MMV031011, 7-chloro-N-methyl-1'-(2-phenylethyl)spiro[2,3,4,9-tetrahydropyrido[3,4-b]indole-1,4'-piperidine]-3-carboxamide]",5.7,Screen signal/noise ratio (MST S/N) [1]: 5.7; Hit validation Binding score [2]: 3.7; Validation binding score (MST) [2]: 3.7
"CC1(C)OB(O)c2ccc(C3=NOC(c4cc(Cl)c(F)c(Cl)c4)(C(F)(F)F)C3)cc21 (centres unmarked) [MMV687775, 5-(3,5-dichloro-4-fluorophenyl)-3-(1-hydroxy-3,3-dimethyl-2,1-benzoxaborol-5-yl)-5-(trifluoromethyl)-4H-1,2-oxazole]",6.6,Screen signal/noise ratio (MST S/N) [1]: 6.6; Hit validation Binding score [2]: 3.9; Validation binding score (MST) [2]: 3.9
"OC[C@H]1O[C@H](O[C@H]2O[C@H](CO)[C@@H](O)[C@H](O)[C@H]2O)[C@H](O)[C@@H](O)[C@@H]1O [Trehalose, α-D-glucopyranosyl-α-D-glucopyranoside, reference compound]",–,Hit validation Binding score [2]: 8.3; Validation binding score (MST) [2]: 8.3
O=C1[C@@H](Oc2ccccc2)[C@@H](c2ccc(Cl)cc2)N1CCn1cnc2c(NCc3ccccc3)ncnc21 [MMV688352],0.212,–
COc1cccn2c(C(=O)N3CCCCC3)c(C(F)(F)F)nc12 [MMV1110498],1.5,–
CC(C)(C)c1cc(C(=O)Nc2cccnc2)cc(C(=O)Nc2cccnc2)c1 [MMV020982],1.3,–
CS(=O)(=O)c1cccc(-c2cnc3[nH]cc(-c4ccc(CCC(=O)O)cc4)c3c2)c1 [MMV026020],1.4,–
Cc1cc(Nc2ccc(C(F)(F)F)cc2)n2ccnc2n1 [MMV011229],0.2,–
CCC(NC(=O)c1ccccc1NC(=O)c1ccc(C)cc1)C(=O)OC (centres unmarked) [MMV019551],0.267,–
O=C(NCc1ccco1)N1CCN(Cc2ccc(Cl)s2)CC1 [MMV688555],0.218,–
c1cc(C2=NCCN2)cc(-c2cc(-c3ccc(C4=NCCN4)cc3)no2)c1 [MMV688361],0.271,–
Nc1ncc(-c2cn[nH]c2)cc1-c1nc2cc(Cl)cnc2[nH]1 [MMV023370],1.1,–
CCc1cc(=O)n(C)c(SC(C)C(=O)Nc2ccc(F)cc2)n1 (centres unmarked) [MMV688980],1.3,–
O=C1COCc2ccc(Br)cc2N1Cc1ccc(C(F)(F)F)cc1 [MMV032995],0.9,–
Cc1nc(-c2ccccn2)nc(N(C)CCc2ccccc2)c1Cl [MMV658988],2.9,–
CC(C)(C(=O)Nc1ccc(F)cc1)n1cc(-c2ccccc2F)cn1 [MMV687239],0.467,–
CC(C)(C)n1nc(Cc2cccc3ccccc23)c2c(N)ncnc21 [MMV676599],0.6,–
CCOc1ccccc1C(=O)Nc1cccc(-c2nc3ncccn3c2C)c1 [MMV019790],1.6,–
Cc1ncc(-c2ccnc(Nc3ccc(S(C)(=O)=O)cc3)n2)n1C(C)C [MMV676604],4.2,–
CS(=O)(=O)c1ccc(C(=O)N(CC2CCCO2)c2nc3ccccc3s2)cc1[N+](=O)[O-] (centres unmarked) [MMV688761],0.6,–
O=C(c1[nH]nc2c1CCCC2)N1CCN(Cc2ccc3c(c2)OCO3)CC1 [MMV676389],1.7,–
CCCn1nnc(NC(=O)COc2ccc(C3CCCCC3)cc2)n1 [MMV676597],0.551,–

SMILES,Pathogen Box screen signal/noise ratio [1],other results
CC(=O)NCC1CN(c2ccc(-c3ccc(CNCc4cn[nH]n4)cc3)c(F)c2)C(=O)O1 (centres unmarked) [MMV688327],0.344,–
COc1ccc(-c2cc(NC(=O)c3ccc(F)cc3Cl)ccc2OC)cc1 [MMV676526],0.556,–
CCN(CC)CCCN1CCN(C(=O)c2cccc(-c3noc(C(F)(F)F)n3)c2)CC1 [MMV022236],0.542,–
CCc1ccc([C@@H]2C[C@H](C(F)(F)F)n3ncc(C(=O)NCc4ccc(OC)cc4)c3N2)cc1 [MMV687180],1.9,–
Cc1cccnc1NC(=O)c1cccc(OCc2c(C)noc2C)c1 [MMV688793],0.4,–
Cc1ccccc1C(=O)N1N=C(Nc2ccccc2)SC1(C)C [MMV688771],0.4,–
CCCCS(=O)(=O)Nc1ccc2cnn(C)c2c1 [MMV687145],1.4,–
O=C(Nc1ccc(N2CCNCC2)cc1)c1ccn2ncc(-c3cccc(Cl)c3)c2n1 [MMV022478],2.0,–
CN1CCC(c2cc(-c3ccncc3)c(-c3ccc(F)cc3)[nH]2)CC1 [MMV688703],1.2,–
Nc1nccc2ccc(Oc3ccncc3)cc12 [MMV026313],1.4,–
Cc1cc(NC(=O)c2ccc(Oc3ccc(Cl)cc3O)o2)no1 [MMV688955],0.4,–
Cc1cc(O)nc(-n2nc(C)cc2C)n1 [MMV393995],0.65,–
O=C(NCc1ccoc1)N1CCN(Cc2ccc3c(c2)OCO3)CC1 [MMV688553],0.8,–
COc1ccc(C2(C(=O)Nc3ccc(Br)cc3)CCCC2)cc1 [MMV200748],1.4,–
O=C(Nc1ccc(N2CCNCC2)nc1)c1oc(-c2ccccc2)nc1C(F)(F)F [MMV024937],2.9,–
Cc1cc(OCC(=O)Nc2ccc(C(C)C)cc2)n(C)c(=O)c1C#N [MMV1198433],1.0,–
C[C@H]1COc2c(N3CCN(C)CC3)c(F)cc3c(=O)c(C(=O)O)cn1c23 [MMV687798],0.9,–
C[C@]1(O)C[C@@H](c2nc(-c3ccc4ccc(-c5ccccc5)nc4c3)c3c(N)nccn32)C1 [MMV676605],0.9,–
CCc1ccc(C(NCc2nc(N)nc(N(C)C)n2)C(C)C)cc1 (centres unmarked) [MMV1019989],0.5,–
C[C@H](C(N)=O)N1CCCC[C@@H]1c1ccc(OCc2cccc(F)c2)cc1 [MMV676270],0.9,–
Cc1ccc2oc(-c3cc(NC(=O)Cc4ccccc4)ccc3Cl)nc2c1 [MMV676509],3.4,–
COc1ccc(-c2onc(C(F)(F)F)c2-c2ccc(Cl)cc2)c(O)c1 [MMV688766],0.9,–
Cc1cc(C2=NOC(c3cc(Cl)c(F)c(Cl)c3)(C(F)(F)F)C2)ccc1C(=O)NCc1ccc2c(c1)C(C)(C)OB2O (centres unmarked) [MMV687776],1.6,–
Cc1cc(C)nc(-n2nc(C)cc2Nc2ccccc2)n1 [MMV062221],0.8,–
NCCN(C(=O)c1ccc(Cl)cc1Cl)c1ccc(OCc2ccc(Cl)cc2)cc1 [MMV688371],1.7,–
CN(C)CCNC(=O)N1CCCN(c2ncnc3cc(-c4ccccc4)sc23)CC1 [MMV024195],0.217,–
